Measured values taken from patent publication US5840721A, “Imidazole derivatives as MDR modulators” (Ontogen Corporation, priority 1997, dated 1998).
Like-named read-outs stand apart in the source and are kept apart here.

Test system: CEM/VLB1000 cell line
Experiment: Cytotoxicity potentiation: enhancement of vinblastine cytotoxicity in MDR cell line (alamar blue)
Type: cell-based, human
Details: midpoint of minimum and maximum cytotoxicity induced by 3-5 μg/mL vinblastine and compound, 48 hours incubation, alamar blue 24 hours, read-out: Cytotocicity Potentiation (EC50)
Protocol: Multidrug-resistant cell lines are easily obtainable for in vitro determination of drug sensitization by compounds of the present invention. In vitro potentiation of antineoplastic cytotoxicity by the imidazole derivatives of the present invention was measured in both CEM/VLB1000 and SK/VLB1000 cell lines. The multidrug resistant cell lines were obtained from Dr. Victor Ling, Ontario Cancer Institute, Toronto, Canada. The CEM/VLB 1000 cell line was maintained as a suspension in minimum essential medium supplemented with 10% fetal bovine serum in a humidied atmosphere of 95% air and 5% CO2 while the SK/VLB 1000 cell line was maintained as adherent cells using the identical medium conditions as the CEM cells. The CEM/VLB 1000 cells were seeded at a density of 5×10^4 cells/well in a 96 well microtiter plate while the SK/VLB 1000 cell line was seeded at a density of 2,500 cells/well after trypsinization.

Row | Compound | EC50 (Homo sapiens) | EC50
1 | COC(=O)[C@@H]1C[C@H]1c1ccc(-c2nc(-c3ccc(N(C)C)cc3)c(-c3ccc(N(C)C)cc3)[nH]2)cc1 (relative stereo) [Example 101] | 200 nM | 
2 | CN(C)c1ccc(-c2nc(-c3ccc(/C=C/c4nc5ccccc5o4)cc3)[nH]c2-c2ccc(N(C)C)cc2)cc1 [Example 56, 2-[trans-2-(2-benzoxazolyl)ethenylphenyl]-4,5-bis (4-N,N-dimethylaminophenyl) imidazole] | 550 nM | 
3 | CNc1ccc(-c2[nH]c(-c3ccc(/C=C/c4nc5ccccc5o4)cc3)nc2-c2ccc(N(C)C)cc2)cc1 [Example 57, 2-[trans-2-(2-benzoxazolyl)ethenylphenyl]-4-(4-N,N-dimethylaminophenyl)-5-(4-N-methylaminophenyl) imidazole] | 210 nM | 
4 | CCN(CC)c1ccc(-c2nc(-c3ccc(/C=C/c4nc5ccccc5o4)cc3)[nH]c2-c2ccc(NC)cc2)cc1 [Example 58, 2-[trans-2-(2-benzoxazolyl)ethenylphenyl]-4-(4-N,N-diethylaminophenyl)-5-(4-N-methylaminophenyl) imidazole] | 470 nM | 
5 | CNc1ccc(-c2nc(-c3ccc(/C=C/c4nc5ccccc5o4)cc3)[nH]c2-c2ccc(N3CCCC3)cc2)cc1 [Example 60, 2-[trans-2-(2-benzoxazolyl)ethenylphenyl]-4-(4-N-methylaminophenyl)-5-(4-pyrrolidinophenyl) imidazole] | 450 nM | 
6 | COCCNc1ccc(-c2[nH]c(-c3ccc(/C=C/c4nc5ccccc5o4)cc3)nc2-c2ccc(N(C)C)cc2)cc1 [Example 61, 2-[trans-2-(2-benzoxazolyl)ethenylphenyl]-4-(4-N,N-dimethylaminophenyl)-5-[4-(2-methoxyethylamino)phenyl] imidazole] | 160 nM | 
7 | CN(C)c1ccc(-c2nc(-c3ccc(/C=C/c4nc5ccccc5s4)cc3)[nH]c2-c2ccc(N(C)C)cc2)cc1 [Example 62, 2-[trans-2-(2-benzthiazolyl)ethenylphenyl]-4,5-bis (4-N,N-dimethylaminophenyl) imidazole] | 1030 nM | 
8 | CNc1ccc(-c2[nH]c(-c3ccc(/C=C/c4nc5ccccc5s4)cc3)nc2-c2ccc(N(C)C)cc2)cc1 [Example 63, 2-[trans-2-(2-benzthiazolyl)ethenylphenyl]-4-(4-N-dimethylaminophenyl)-5-(4-N-methylaminophenyl) imidazole] | 320 nM | 
9 | CN(C)c1ccc(-c2nc(-c3ccc(/C=C/C#N)cc3)[nH]c2-c2ccc(N(C)C)cc2)cc1 [Example 64, 2-[trans-2-(2-cyano)ethenylphenyl]-4,5-(4-N,N-dimethylaminophenyl) imidazole] | 550 nM | 
10 | COCCNc1ccc(-c2[nH]c(-c3ccc(/C=C/C#N)cc3)nc2-c2ccc(N(C)C)cc2)cc1 [Example 65] | 250 nM | 
11 | C=CCN(CC=C)c1ccc(-c2nc(-c3ccc(/C=C/C(=O)OC)cc3)[nH]c2-c2ccc(F)cc2)cc1 [Example 66, 2-(trans-2-methoxycarbonyl-ethenylphenyl)-4-(4-N,N-diallylaminophenyl)5-(4-fluoro-phenyl) imidazole] | 850 nM | 
12 | CNc1ccc(-c2nc(-c3ccc(/C=C/C(=O)OC)cc3)[nH]c2-c2ccc(N3CCCC3)cc2)cc1 [Example 67, 2-(trans-2-methoxycarbonyl-ethenylphenyl)-4-(4-N-methylaminophenyl)5-(4-pyrrolidinophenyl) imidazole] | 98 nM | 
13 | CNc1ccc(-c2nc(-c3ccc(/C=C/C(=O)OC)cc3)[nH]c2-c2ccc(N3CCCCC3)cc2)cc1 [Example 68, 2-(trans-2-methoxycarbonyl-ethenylphenyl) -4-(4-N-methylaminophenyl)5-(4-piperidinophenyl) imidazole] | 390 nM | 
14 | CNc1ccc(-c2[nH]c(-c3ccc(/C=C/C(=O)OC)cc3)nc2-c2ccc(N(CCOC)CCOC)cc2)cc1 [Example 69, 2-(trans-2-methoxycarbonyl-ethenylphenyl)-4-[4-N,N-di(2methoxyethyl)aminophenyl]-5-(4-N-methylaminophenyl) imidazole] | 330 nM | 
15 | CNc1ccc(-c2[nH]c(-c3ccc(/C=C/C(=O)OC)cc3)nc2-c2ccc(-n3ccnc3)cc2)cc1 [Example 70, 2-(trans-2-methoxycarbonyl-ethenylphenyl)-4-[4-(1-imidazolyl)phenyl]-5(4-N-methylaminophenyl) imidazole] | 500 nM | 
16 | COC(=O)/C=C/c1ccc(-c2nc(-c3ccc(N4CCOCC4)cc3)c(-c3ccc(N4CCOCC4)cc3)[nH]2)cc1 [Example 71, 2-(trans-2-methoxycarbonyl-ethenylphenyl)-4,5-bis (4-N-morpholinophenyl) imidazole] | 370 nM | 
17 | COC(=O)/C=C/c1ccc(-c2nc(-c3ccc(N(C)C)cc3)c(-c3ccc(N4CCOCC4)cc3)[nH]2)cc1 [Example 72, 2-(trans-2-methoxycarbonyl-ethenylphenyl)-4-(4-N-dimethylaminophenyl)-5-(4-N-morpholinophenyl) imidazole] | 320 nM | 
18 | CNc1ccc(-c2nc(-c3ccc(/C=C/C(=O)OC)cc3)[nH]c2-c2ccc(N3CCOCC3)cc2)cc1 [Example 73, 2-(trans-2-methoxycarbonyl-ethenylphenyl)-4-(4-N-methylaminophenyl)5-(4-N-morpholinophenyl) imidazole] | 340 nM | 
19 | CCOC/C=C/c1ccc(-c2nc(-c3ccc(N(C)C)cc3)c(-c3ccc(NC)cc3)[nH]2)cc1 [Example 76, 2-[4-(3-ethoxy-trans-1-propen-1-yl)phenyl]-4-(4-N-dimethylaminophenyl)-5-(4-N-methylaminophenyl) imnidazole] | 110 nM | 
20 | CNc1ccc(-c2[nH]c(-c3ccc(/C=C/COc4ccccc4)cc3)nc2-c2ccc(N(C)C)cc2)cc1 [Example 78, 2-[4-(3-phenoxy-trans-1-propen-1-yl)phenyl]-4-(4-N-dimethylaminophenyl)-5-(4-N-methylaminopheny) imidazole] |  | 450 nM
21 | CNc1ccc(-c2[nH]c(-c3ccc(/C=C/COc4ccc(OC)c(OC)c4)cc3)nc2-c2ccc(N(C)C)cc2)cc1 [Example 79, 2-{4-[3-(3,4-dimethoxy-phenoxy)-trans-1-propen-1-yl]phenyl}-4-(4-N-dimethylaminophenyl)-5-(4-N-methylaminopheny) imidazole] |  | 1210 nM
22 | CCN(CC)C/C=C/c1ccc(-c2nc(-c3ccc(N(C)C)cc3)c(-c3ccc(N(C)C)cc3)[nH]2)cc1 [Example 80, 2-[4-(3-N,N-diethylamino-trans-1-propen-1-yl)phenyl]-4,5-bis (4-N,N-dimethylaminophenyl) imidazole] |  | 880 nM
23 | CN(C)C/C=C/c1ccc(-c2nc(-c3ccc(N(C)C)cc3)c(-c3ccc(N(C)C)cc3)[nH]2)cc1 [Example 83, 2-[4-(3-N,N-dimethylamino-trans-1-propen-1-yl)phenyl]-4,5-bis (4-N,N-dimethylaminophenyl) imidazole] | 1300 nM | 
24 | COCCOC/C=C/c1ccc(-c2nc(-c3ccc(N(C)C)cc3)c(-c3ccc(N(C)C)cc3)[nH]2)cc1 [Example 84, 2-{4-[3-(2-methoxy-ethoxy)-trans-1-propen-1-yl]phenyl}-4,5-bis (4-N,N-dimethylaminophenyl) imidazole] | 90 nM | 
25 | CCCCOC/C=C/c1ccc(-c2nc(-c3ccc(N(C)C)cc3)c(-c3ccc(N(C)C)cc3)[nH]2)cc1 [Example 85, 2-[4-(3-butoxy-trans-1-propen-1-yl)phenyl]-4,5-bis (4-N,N-dimethylaminophenyl) imidazole] | 110 nM | 
